Laboratory results taken from patent publication US9308284B2, “Formulations of fluorinated stilbene suitable for PET imaging” (PIRAMAL IMAGING SA, priority 2011, dated 2016).

What was measured:
[1] = Hydrophobic filters and adsorption: Compound 1 concentration before and after sterile filtration of 10 mL Formulation 1; type: physicochemical; conditions: for Filtrate (%) / Adsorption: n=6
Method: Formulation 1 comprising compound 1 was prepared as indicated above and filtered using selected sterile filters. Adsorption of compound 1 was determined by measuring the concentration of Compound 1 before and after filtration of 10 mL of Formulation 1 and subsequent calculation of the adsorption. Table 2 indicates the results of adsorption experiments using different filters.

[2] = Stability of Formulation 1 comprising HCl salt of Compound 1 for 12 hours at room temperature; type: physicochemical
Method: The term “concentration interval of compound 2” as used herein is corrected for the decay of fluorine-18.
Formulation 1 was prepared containing 3 μg/mL of Compound 1 (according to 3.3 μg/mL HCl salt of compound 1). The assay was analysed after preparation and after 12 hours storage according to the short shelf life of PET imaging tracer, typically expected between 6 and 10 hours. Eight individual batches were prepared and analysed for assay.
Table 1 indicates the results of stability testing after 12 hours of n=8 individually manufactured batches.
Minisart HY 0.2 μm is a sterile filter with PTFE hydrophobic membrane.

[3] = Formulation 1, Pall HP2002 0.2 μm, Versapor R hydrophobic

- Filtrate (%) ([1]; Formulation 1, Millex GV 0.22 μm (Millipore, SLGV033RS), PVDF): 94.0 ± 0.7%
- Adsorption ([1]; Formulation 1, Millex GV 0.22 μm (SLGV033RS), PVDF): 6.0%
- Adsorption ([1]; Formulation 1, Minisart HY 0.2 μm (16596-HYK), PTFE): 1.2%
- Filtrate (%) ([1]; Formulation 1, Minisart HY 0.2 μm (Sartorius Stedim, 16596-HYK), PTFE): 98.8 ± 0.6%
- Adsorption ([1]; Formulation 1, Minisart High Flow 0.2 μm (16532), polyethersulfone): 36.1%
- Filtrate (%) ([1]; Formulation 1, Minisart High Flow 0.2 μm (Sartorius Stedim, 16532), polyethersulfone): 63.9 ± 1.8%
- Adsorption ([1]; Formulation 1, Minisart SRP25 0.2 μm (17575), PTFE): 0.6%
- Filtrate (%) ([1]; Formulation 1, Minisart SRP25 0.2 μm (Sartorius Stedim, 17575), PTFE): 99.4 ± 0.3%
- Adsorption [1, 3]: 14.2%
- Filtrate (%) [1, 3]: 85.8 ± 0.3%
- Amount of compound 1 adsorbed onto the filter material ([1]; filter units containing PTFE and PVDF): low amount
- Visual Inspection ([2]; Formulation 1, 3 μg/mL Compound 1 (3.3 μg/mL HCl salt), 12 h storage at RT, n=8 batches): clear
- ΔFiltration in % ([2]; Formulation 1, 12 h at RT, n=8, Minisart HY 0.2 μm): 1.9%
- Content of Compound 1 in % after 12 h, after filtration (Minisart HY 0.2 μm) ([2]; Formulation 1, 12 h at RT, n=8, PTFE sterile filter, relative to concentration after preparation): 97.0%
- Content of Compound 1 in % after 12 h, prior filtration ([2]; Formulation 1, 12 h at RT, n=8, relative to concentration after preparation (2.97 to 3.14 μg/mL)): 98.9%
- Chemical stability in the formulation ([2]; Formulation 1, 12 hours, RT): chemically stable
Compound: CNc1ccc(/C=C/c2ccc(OCCOCCOCCF)cc2)cc1 [Compound 1]
